According to patent publication US7309719B1, “Stabilized pharmaceutical preparation of gamma-aminobutyric acid derivatives and process for preparing the same” (Warner Lambert Company, LLC, priority 1998, dated 2007):

What was measured:
[1] = Dehydration reaction (lactam formation) in a dried state at 105° C.; format: physicochemical; conditions: 105° C. over 2-3 hours
Source text: In other words, in the 4-amino-3-substituted-butanoic acid derivative wherein the substituent at the 3-position thereof has a bulky structure, the dehydration reaction could easily be brought about between the amino group and the carboxyl group within the molecule.

[2] = Stabilizing effect of amino acids on 4-amino-3-substituted-butanoic acid derivatives
[3] = Stability of compacted pregabalin powders, dehydrated condensate content by HPLC (Example 9); format: physicochemical; conditions: solid
Experimental: 3) Sample (v) was prepared by dissolving 1 g of pregabalin crystals and 1.47 g of L-valine in water to make up a total volume of 50 mL. • Samples (t), (u) and (v) prepared as described above were stored under the conditions as defined in the following Table 10 and then a content of the dehydrated condensate formed in each of the aqueous solutions was determined by means of HPLC. In this Example and the following Examples, a content of the dehydrated condensate formed is expressed in terms of % by weight, based on pregabalin.
This Example will illustrate the preparation of a stabilized solid pharmaceutical preparation of pregabalin by the addition of the amino acid to pregabalin according to the dry admixture.
1) 1 g of pregabalin crystals was prepared to powdery Sample (aa) in a compacted state by means of a mortar.
2) 1 g of pregabalin crystals was blended with 10 mg of magnesium stearate by means of a mortar to prepare mixed powdery Sample (ab) in a compacted state.
3) 1 g of pregabalin crystals was blended with 30 mg of talc by means of a mortar to prepare mixed powdery Sample (ac) in a compacted state.
4) 1 g of pregabalin crystals was blended with 30 mg of L-leucine by means of a mortar to prepare mixed powdery Sample (ad) in a compacted state. • Samples (aa), (ab), (ac) and (ad) prepared as described above and untreated pregabalin crystals were stored under the conditions as defined in the following Table 11 and then a content of the dehydrated condensate formed in each of the samples was determined by means of HPLC.

[4] = Stability of baclofen granular powders (wet admixture), dehydrated condensate content by HPLC (Example 11); format: physicochemical; conditions: solid
Experimental: In this Example and the following Example, a content of the dehydrated condensate thus formed is expressed in terms of % by weight, based on baclofen.
In this Example, the stabilization of baclofen according to the wet admixture with the amino acid was tested for the following Samples (ag) and (ah) of baclofen.
1) Sample (ag) was prepared by wetting 200 mg of baclofen crystals with 0.1 mL of water, forming granular powders by means of a mortar and then drying.
2) Sample (ah) was prepared by wetting 200 mg of baclofen crystals with 0.1 mL of a 2% aqueous solution of L-isoleucine, forming granular powders by means of a mortar and then drying. • Samples (ag) and (ah) prepared as described above and untreated baclofen crystals were stored under the conditions as defined in the following Table 13 and then a content of the dehydrated condensate formed in each of the samples was determined by means of HPLC.

NCC(O)CC(=O)O (stereo not shown) [4-amino-3-hydroxy-butanoic acid]
dehydration reaction (formation of the corresponding lactam form) [1]: not brought about

O=C(O)[C@@H]1C[C@@H](O)CN1 [hydroxyproline]
stabilizing effect as stabilizer for a 4-amino-3-substituted-butanoic acid derivative [2]: weak stabilizing effect

CC(C)CC(CN)CC(=O)O (stereo not shown) [Untreated Pregabalin, 5-methyl-3-aminomethyl-hexanoic acid]
content of the dehydrated condensate ([3]; 60° C./2 weeks (sealed)): 0.001 % by weight, based on pregabalin | content of the dehydrated condensate ([3]; 80° C./1 week (sealed)): 0.006 % by weight, based on pregabalin | content of the dehydrated condensate ([3]; When initiated): <0.001 % by weight, based on pregabalin

NCC(CC(=O)O)c1ccc(Cl)cc1 (stereo not shown) [Untreated Baclofen]
content of the dehydrated condensate ([4]; 60° C./1 week (sealed)): 0.36 % by weight, based on baclofen | content of the dehydrated condensate ([4]; 60° C./2 weeks (sealed)): 0.57 % by weight, based on baclofen | content of the dehydrated condensate ([4]; 60° C./3 weeks (sealed)): 0.70 % by weight, based on baclofen | content of the dehydrated condensate ([4]; When initiated): 0.10 % by weight, based on baclofen

NCCCC(=O)O [γ-aminobutyric acid]
dehydration reaction (formation of the corresponding lactam form) [1]: not brought about
